{"source": "patent EP1482971B1", "about": "“STRATEGY FOR RETROVIRAL IMMUNOTHERAPY” (priority 2002, dated 2003)", "key": {"MAIDS virus [1]": {"tested_on": "MAIDS virus", "assay": "Spleen cell transfer into Vb-treated MAIDS infected mice", "type": "in vivo", "from_the_text": "The experiments illustrated in Figure 7 were designed to determine if a single dose of Vb, administered at 14 days pi, is eliminating a population of expanding CD4^+ regulator T cells and thereby releasing effector cells from down-regulation and clearing the host of the MAIDS virus.\nMice were infected with MAIDS, received day 14 pi Vb treatment and then received an adoptive transfer of ∼10^7 spleen cells from donor mice prepared as outlined in Figure 7. For each experiment [designated (I), (II) and (III)] groups consisted of 7 recipient mice and 9 donor mice. Mice in Group I received whole spleens from infected mice that had not received any Vb treatment. Mice in Group II received whole spleen cell preparations, from infected mice, that had been depleted of CD4^+ cells using a FACS cell sorter after staining with fluorochrome-labeled anti-CD4 monoclonal antibody. […] Mice in Group III received whole spleens from infected donor mice that also received Vb treatment on day 14 pi."}, "MAIDS virus [2]": {"tested_on": "MAIDS virus", "assay": "Adoptive transfer of CD4+CD25+/- cells into MAIDS infected day 14 Vinblastine treated mice", "type": "in vivo", "conditions": "MAIDS-infected day 14 Vb-treated recipients given CD4+CD25+ or CD4+CD25- cells from uninfected donors", "from_the_text": "An adoptive transfer experiment was designed to directly test the hypothesis that CD4+CD25+ T cells are functioning as the regulator cells in the murine AIDS model. The same approach used to determine that the regulator cells are CD4+ T cells was used to test whether the CD4+CD25+ subset are the target of day 14 Vinblastine treatment. […] 2.0x10^6 cells of the regulator CD4+CD25+ phenotype were purified from single cell suspensions of donor spleens using MACS beads (Miltenyi Biotec) using two positive selection steps. The cells were then tested for purity by flow cytometry (both CD4+CD25+ and CD4+CD25- fractions were of > 90 % purity) and viability using trypan blue exclusion prior to transfer into uninfected (control) and MAIDS infected day 14 Vinblastine treated mice. CD4+CD25- cells were also transferred to allow that the regulator cells may not present in the CD25+ fraction and also to allow for the possibility that these putative regulator cells may lose CD25 expression as they expand and become activated as was reported by Gavin et al., 2002.\nMice receiving adoptive transfer of cells were either uninfected (control) or MAIDS infected and day 14 Vinblastine treated to examine whether the transfer of cells would result in disease progression. […] Disease progression was assessed by spleen weight at 10 weeks post MAIDS infection. […]"}, "murine T cell lymphoma": {"tested_on": "murine T cell lymphoma", "conditions": "cited from earlier work"}, "[3]": {"tested_on": "CD4^+ T cells and CD25^+CD4^+ T cells", "assay": "Direct FACS analysis of spleen cells following Vb therapy on day 14 post infection", "type": "in vivo, mice", "conditions": "spleens collected 48 hours post Vb treatment", "procedure": "FACS analysis of CD4^+ and CD8^+ T cells prepared from spleens of mice treated with Vb on Day 14 pi was performed (Figure 6). CD25^+CD4^+ T cells were also examined as they have recently been identified as having an important regulatory function in mouse models of autoimmune disease and tumour immunology (Takahashi et al., 1998; Shimizu et al., 1999). It is possible that these cells may play a role in the regulation of the immune response to MAIDS. Day 14 pi and uninfected control mice were given Vb therapy and the spleens collected at 48 hours post Vb treatment."}, "MAIDS virus [4]": {"tested_on": "MAIDS virus", "assay": "Rechallenge with MAIDS virus following protective vinblastine therapy", "type": "in vivo, mice", "conditions": "Vb at day 14 pi, rechallenged at 3 or 8 weeks post Vb treatment; assessed at 20 weeks", "from_the_text": "To determine if mice protected from MAIDS by the day 14 pi Vb treatment develop an immune response which would then protect them from a subsequent rechallenge with the MAIDS virus groups of mice, given the Vb therapy at day 14 pi, were rechallenged with the MAIDS virus at 3 or 8 weeks post Vb treatment. […] This is not an unexpected result as the dominant immunosuppression by the regulator population of cells would have been restored as a consequence of the immune effector response to the second (untreated) infection."}, "[5]": {"tested_on": "LP-BM5 murine leukemia virus (MuLV)", "assay": "MAIDS development after a single dose of vinblastine at different times post infection (spleen weight, histology, FACS analysis)", "type": "in vivo, C57BL/6 mice", "from_the_text": "A murine AIDS (MAIDS) pathology induced by LP-BM5 murine leukemia virus (MuLV) in susceptible mice is an effective tool to investigate mechanisms of retrovirus-induced immunodeficiency. […] Infection of a susceptible strain such as C57BL/6 mice with LP-BM5 leads to chronic splenomegaly, hypergammaglobulinaemia and development of immunodeficiency in both T and B cells. In vitro, there is a progressive impairment in the responsiveness of T-cells and B-cells to mitogenic or specific antigenic stimuli. In vivo, infected mice become increasingly susceptible to challenge with a variety of opportunistic organisms and can develop B-cell lymphoma. Deaths are first observed at 8-10 weeks post-infection (pi), and all mice die within 24 weeks (Figure 1). These alterations in immune function reflect complex changes in the phenotype and function of all components of the immune network.\nThe treatment with a single dose of the anti-mitotic agent vinblastine (Vb) at different times pi is able to prevent the development/progression of MAIDS. […] Clearly, the Vb treatment is remarkably therapeutic when administered at 6 hr or 14 days pi with 100% (10/10) and 74% (20/27) of mice, respectively, showing no signs of MAIDS development at 10 weeks pi (as determined by spleen weight, histology and FACS analysis). […] Additional experiments have provided results of 100% of mice having no signs of MAIDS development at least 12 months after Vb treatment 14 days pi (data not shown). Although not as pronounced as the protection seen after day 14 treatment, moderate protection from MAIDS development was still observed. […] The total protection from MAIDS development seen in mice given Vb at 6 hrs pi is not unexpected as the virus replicates in actively replicating cells which are the target of the anti-mitotic drug thus any cells infected with the virus are killed by the Vb preventing the virus from rapidly establishing an infection in the host. However, the highly protective effect observed after a single treatment with Vb at 14 days pi is quite remarkable as, by this stage, the viral infection is well established and the early disease processes are well underway. We propose that this highly therapeutic effect is due to the Vb targeting a particular subset of immune regulator cells during their expansion phase and thereby altering the immune response to the viral infection. […] This leads to long term disease free survival for many months post-infection and treatment.\nSpleens from the Day 14 pi Vb treated mice as well as infected and uninfected control mice were weighed and examined histologically. The splenic architecture of all MAIDS infected mice was profoundly disorganised as previously reported (Hartley et al., 1989)."}}, "note": "Where two headings read alike, the source gives them in different places.", "data": [{"smiles": "CC[C@]1(O)C[C@@H]2CN(CCc3c([nH]c4ccccc34)[C@@](C(=O)OC)(c3cc4c(cc3OC)N(C)[C@H]3[C@@](O)(C(=O)OC)[C@H](OC(C)=O)[C@]5(CC)C=CCN6CC[C@]43[C@@H]65)C2)C1", "note": "[Vb, vinblastine]", "values": [{"measurement": "protective effect of Vb against MAIDS development after spleen cell transfer", "setting": "MAIDS virus [1]; Group I: day 14 pi Vb, then ~10^7 whole spleen cells from MAIDS infected donors without Vb", "value": "completely prevented Vb from protecting mice from MAIDS development"}, {"measurement": "protective effect of Vb against MAIDS development after spleen cell transfer", "setting": "MAIDS virus [1]; Group II: donor spleen cells depleted of CD4^+ cells by FACS sorting before transfer", "value": "the protective effect of Vb was not overcome"}, {"measurement": "protective effect of Vb against MAIDS development after spleen cell transfer", "setting": "MAIDS virus [1]; Group III: spleen cells from MAIDS infected donors also given day 14 Vb", "value": "fully protected from MAIDS development"}, {"measurement": "disease progression (spleen weight at 10 weeks post MAIDS infection) after adoptive cell transfer", "setting": "MAIDS virus [2]", "value": "disease progression was readily apparent"}, {"measurement": "effect on tumour", "setting": "murine T cell lymphoma; single dose at day 10 following tumour inoculation", "value": "enhancement"}, {"measurement": "effect on tumour", "setting": "murine T cell lymphoma; single dose at days 4, 6, 13 and 15 following tumour inoculation", "value": "regression"}, {"measurement": "effect on spleen cell subsets", "setting": "[3]; Vb at day 14 pi and in uninfected controls", "value": "all cell subsets are reduced"}, {"measurement": "cell subsets preferentially targeted in MAIDS infected mice (uninfected to infected ratios)", "setting": "[3]; Vb at day 14 pi", "value": "CD4^+ T cells and CD25^+CD4^+ T cells that are preferentially targeted"}, {"measurement": "protection from viral rechallenge", "setting": "MAIDS virus [4]", "value": "not protected from viral rechallenge"}, {"measurement": "mice protected from any splenomegaly at 20 weeks pi", "setting": "[5]; Vb at day 14 pi, 4/5 mice", "value": 80, "unit": "%"}, {"measurement": "mice having no signs of MAIDS development at least 12 months after Vb treatment", "setting": "[5]; Vb treatment 14 days pi, additional experiments, data not shown", "value": 100, "unit": "%"}, {"measurement": "cellular proportions (CD4^+, CD8^+ and B cells) and distributions of spleen cells by FACS analysis", "setting": "[5]; day 14 pi Vb treated mice at 10 weeks pi, preliminary, data not shown", "value": "like those observed in normal uninfected mice"}, {"measurement": "splenic architecture (spleen histology)", "setting": "[5]; day 14 pi Vb treated mice with normal spleen weights (below 0.25g), 10 weeks pi", "value": "indistinguishable from that of uninfected control mice"}, {"measurement": "mice showing no signs of MAIDS development at 10 weeks pi", "setting": "[5]; single 6mg/kg i.p. dose given at 6 hr pi, 10/10 mice, by spleen weight, histology and FACS analysis", "value": 100, "unit": "%"}, {"measurement": "mice with protective effect (no signs of MAIDS development at 10 weeks pi)", "setting": "[5]; single 6mg/kg i.p. dose given at 6 days pi, 6/13 mice", "value": 46, "unit": "%"}, {"measurement": "mice showing no signs of MAIDS development at 10 weeks pi", "setting": "[5]; single 6mg/kg i.p. dose given at 14 days pi, 20/27 mice", "value": 74, "unit": "%"}, {"measurement": "protection against MAIDS development", "setting": "[5]; single 6mg/kg i.p. dose given at day 2 pi", "value": "no protection against MAIDS development"}, {"measurement": "protection against MAIDS development", "setting": "[5]; single 6mg/kg i.p. dose given at day 7 pi", "value": "no protection against MAIDS development"}]}]}
